The record followed here is patent EP3769768A1, “COMPOUNDS USEFUL FOR THE TREATMENT OF PARKINSON S DISEASE” (priority 2019, dated 2021).

Experiment [1] concerns lymphoblasts from G2019S LRRK2 PD patients. To be noted: for Centrosomal cohesion deficits: three lymphoblast lines from G2019S LRRK2 PD patients, short-term application of LRRK2 kinase inhibitor, Figure 1A; for reversal of the cohesion deficit: five G2019S LRRK2 PD patients, dose-response.
Description: Peripheral blood mononuclear cells (PBMCs) were collected and processed according to manufacturer's instructions, and lymphocytes were immortalized by infection with Epstein-Barr virus (EBV) as described. Briefly, cell lines were established from freshly isolated or cryopreserved lymphocytes using standard EBV transformation protocols which include cell separation by gradient centrifugation and lymphocyte growth enhancement by 1% (v/v) of the mitogenic phytohemagglutinin-M (PHA-M, ThermoFisher Scientific, 10576015). Cell lines were maintained in RPMI 1640 medium supplemented with 20 % fetal bovine serum, 2 % L-glutamine, 20 units/mL penicillin and 20 µg/ml streptomycin in T75 flasks in 5 % CO2 at 37 °C. Cells were maintained at a density of 10^6 cells/mL, with cell density monitored every other day using trypan blue staining.
Coverslips (13 mm diameter) were placed into 24-well plates and coated with Cell-Tak Cell and Tissue Adhesive solution (Corning, nr. 354240) according to manufacturer's instructions. After 20 minutes incubation at room temperature, the solution was removed, and coverslips were rinsed twice with distilled water followed by air-drying. Lymphoblast cells (200,000/well) were added to dry coated coverslips, and cells attached by slight centrifugation at 690 g for 10 minutes at room temperature (without brake). Cells were fixed with 2 % paraformaldehyde (PFA) in phosphate-buffered saline (PBS) for 20 minutes at room temperature, followed by 5 min of ice-cold methanol fixation before permeabilization with 0.2% Triton-X100/PBS for 20 min. After blocking for 1 hour in 0.5% BSA (w/v) in 0.2% Triton-X100/PBS (blocking buffer), cells were incubated with primary antibodies overnight at 4 °C in blocking buffer. Primary antibodies included mouse monoclonal anti-γ-tubulin (1:1000; Abcam ab11316), rabbit polyclonal anti-pericentrin (1:1000; Abcam ab4448) or rabbit monoclonal anti-phospho-Rab10 (1:100; Abcam ab237703). The following day, coverslips were washed three times 10 minutes in 0.2% Triton-X100/PBS, followed by incubation with secondary antibodies (Alexa488-conjugated goat anti-mouse (1:1000; Invitrogen) and Alexa594-conjugated goat anti-rabbit (1:1000; Invitrogen)) in blocking buffer for 1 hour. Coverslips were washed three times in 0.2% Triton-X100/PBS, rinsed in PBS and mounted in mounting medium with DAPI (Vector Laboratories). For staining with the anti-phospho-Rab10 antibody, the methanol fixation was omitted, and 0.2% Triton-X100 was replaced by 0.1% saponin throughout. For treatment of cells with MLi2, cells were seeded on coated coverslips as described above, and incubated with or without MLi2 (generous gift of D. Alessi, University of Dundee, UK) (or DMSO as control) at the indicated concentrations for two hours at 37 °C, before attachment by slight centrifugation followed by fixation as described above.
Images were acquired on a Leica TCS-SP5 confocal microscope using a 63X 1.4 NA oil UV objective (HCX PLAPO CS). Images were collected using single excitation for each wavelength separately, and dependent on secondary antibodies (488 nm Argon Laser line and a 498-551 nm emission band pass; 543 HeNe laser line and a 615-671 nm emission band pass; 405 nm UV diode and a 418-467 nm emission band pass). Around 30 image sections of selected areas were acquired with a step size of 0.5 µm, and z-stack images analyzed and processed using Leica Applied Systems (LAS AF6000) image acquisition software. The same laser intensity settings, exposure times and zoom were used for image acquisition of individual experiments to be quantified.
The test system of another experiment is sporadic PD lymphoblasts. The experiment is described as follows: Centrosomal cohesion deficit in lymphoblasts from sporadic PD patients (immunofluorescence, confocal imaging). Type of experiment: cell-based, human. To be noted: subset of sporadic PD patients with deficit (not G2019S carriers); short-term application of 10 nM MLi2; Figures 4A to 4D.

Where two headings read alike, the source gives them in different places.

Description for sporadic PD lymphoblasts: Peripheral blood mononuclear cells (PBMCs) were collected and processed according to manufacturer's instructions, and lymphocytes were immortalized by infection with Epstein-Barr virus (EBV) as described. Briefly, cell lines were established from freshly isolated or cryopreserved lymphocytes using standard EBV transformation protocols which include cell separation by gradient centrifugation and lymphocyte growth enhancement by 1% (v/v) of the mitogenic phytohemagglutinin-M (PHA-M, ThermoFisher Scientific, 10576015). Cell lines were maintained in RPMI 1640 medium supplemented with 20 % fetal bovine serum, 2 % L-glutamine, 20 units/mL penicillin and 20 µg/ml streptomycin in T75 flasks in 5 % CO2 at 37 °C. Cells were maintained at a density of 10^6 cells/mL, with cell density monitored every other day using trypan blue staining. […]
Images were acquired on a Leica TCS-SP5 confocal microscope using a 63X 1.4 NA oil UV objective (HCX PLAPO CS). […] Around 30 image sections of selected areas were acquired with a step size of 0.5 µm, and z-stack images analyzed and processed using Leica Applied Systems (LAS AF6000) image acquisition software. The same laser intensity settings, exposure times and zoom were used for image acquisition of individual experiments to be quantified.

On to `O=C(Nc1cccnc1)c1cc(-c2ccnc(F)c2)ccc1OCc1ccccc1` [GSK2578215A, 2-(benzyloxy)-5-(2-fluoropyridin-4-yl)-N-(pyridin-3-yl)benzamide], for which, in experiment [1], the Centrosomal cohesion deficits result is “could be reversed”.
For the compound `CC1CN(c2cc(-c3n[nH]c4ccc(OC5(C)CC5)cc34)ncn2)CC(C)O1` (centres unmarked) [MLi2, 3-(4-Pyrimidinyl) Indazole], the Centrosomal cohesion deficits entry in the experiment with sporadic PD lymphoblasts is given as “reverted”; in experiment [1], “could be reversed”. The “reversal of the cohesion deficit” value in experiment [1] (1 nM MLi2, Figures 3A and 3B) is reported as “significant reversal”; in experiment [1] (10 nM MLi2, Figures 3A and 3B) it was “complete reversal”. The “Centrosomal deficits in all G2019S LRRK2 PD samples” value in experiment [1] (larger sampling, individual samples, Figure 4C) is recorded as “reverted by MLi2 in all cases”. Moreover, the centrosomal alterations entry in experiment [1] (larger sampling, short-term application of 10 nM MLi2, Figures 4A and 4B) is “reverted”. For the same compound, in experiment [1] (washout of inhibitor, G2019S LRRK2 PD samples, Figures 3A and 3B), the “centrosomal cohesion deficits upon removal of kinase inhibitor” value is on record as “reverted back to the ones observed in the absence of inhibitor”.
